Data: patent US12714702B2, “Compositions and methods for treating or preventing pulmonary hypertension” (priority 2020, dated 2026)

Tests used:
[1] = test system: 5-HT induced bovine PASMC; assay: Anti-proliferative efficacy in 5-hydroxytryptamine induced hyper-proliferation; type: cell-based; settings: 1.5-5.0 μM, time- and concentration-dependent
Procedure: Data represent mean±SD (n=5) repeated over 3 experiments. *p<0.05.
Human or bovine PASMC were treated with varying concentrations of QA (1.5-, 3.1-, and 6.2-μM). Cellular proliferation was measured at day 1, day 3 and day 5 by following the manufacturer's protocol. Briefly, a reagent mix of nucleic acid stain and background suppressor were added in PBS followed by addition of the mix in treatment wells (100 μL/well). The plates were incubated at 37° C./5% CO2 for one hour followed by evaluation of fluorescence at 485 ex/535 em. Proliferation inhibition was analyzed relative to control wells on each time point. Data was averaged from two trials with n=6 for SMC II and one trial of n=4 for SMC III.
In-vitro studies to measure anti-proliferative activity of QA against pulmonary hypertension were performed using primary human PASMC (FIG. 3), primary bovine PASMC (FIG. 4) and high altitude PASMC (HAPASMC) (FIG. 4). HAPASMC, due to prolonged hypoxia exposure, are known to be hyper-proliferative in regular culture conditions, while hyper-proliferation was induced in PASMC cells by 24 hour serum starvation, or by exposure to 5-hydroxytryptamine (5-HT). […]

[2] = test system: primary human PASMCs; assay: Caspase-3 assay (apoptotic induction); type: cell-based; settings: 6-hour treatment, 5 and 10 μM, concentration-dependent
Procedure: Caspase-3 level in SMC II cells was evaluated using EnzCheck™ Caspase-3 assay kit (ThermoFisher Scientific, Waltham, MA, USA) following the manufacturer's protocol. Briefly, upon 90% confluency, SMC II cells were harvested and seeded in 100 mm TC treated culture dishes at a density of 250,000 cells/well and allowed to adhere overnight. Following day, cells were treated with QA (5- and 10-μM) for 6 hours followed by harvesting. Harvested cells were lysed using a lysis buffer for 30 minutes on ice. The cells were centrifuged, and supernatant was used to analyze levels of a caspase-3 substrate aminomethylcoumarin (AMC)-derived substrate Z-DEVD-AMC (fluorescence measurement at 360 ex/460 em).
An apoptotic induction assay, i.e., Caspase-3 assay was performed to understand QA's impact on cellular apoptosis in primary human PASMCs following 6-hour treatment. […] Moreover, another apoptotic induction assay, i.e., Annexin V FITC assay was also used to measure the effects of QA on serum-starved bovine PASMCs.

[3] = test system: LC3B-II in high-altitude bovine PASMCs; assay: Autophagy inhibition assay (LC3B-II expression), western blot; type: cell-based; settings: high altitude bovine PASMC cell lysate, QA 5 μM
Procedure: In FIGS. 9A-9B, PASMC were serum starved for 24 hours, and then treated with varying QA concentrations in serum-starved media. Quantification was performed using Cyto-ID® autophagy kit and Annexin-V/FITC apoptosis kit. […] In FIG. 9C, autophagy inhibition by QA (5 μM) as depicted by increase in LC3B-II concentration in bovine high altitude PASMC quantified by western blot assay kit. Data represent mean±SD (n=3). *p<0.05.
High-altitude bovine PASMCs were used to determine the effect of QA on LC3B-II, an autophagy marker, by western blotting (#3868S, LC3B (D11) XP Rabbit monoclonal antibody, Cell Signaling, Danvers, MA).
Autophagy inhibition (lysosomal fusion with autophagosomes) by QA was examined. Bovine PASMCs were serum starved in FBS-free media for 24 hours, and then treated with QA (2.5 and 5 μM) for 24 hours. Autophagic inhibition was measured with Cyto-ID® autophagy detection kit. […] QA-induced autophagy inhibition by targeting LC3B-II expression was examined using HAPASMCs.

[4] = test system: Ki67, PCNA, vWF, α-SMA in MCT-induced PAH animal lung tissue; assay: MCT model, immunofluorescence of lung tissue; type: in vivo, rat; settings: MCT rats
Procedure: FIGS. 12A-12B show immunofluorescence imaging for MCT-induced PAH animal lung tissue slides.
(§1) Preclinical in-vivo studies for QA were earlier performed at a dose of 10 mg/kg once-a-day in monocrotaline (MCT) induced therapeutic PAH model. Hemodynamic parameters were collected and lung tissues were also collected and were sectioned for visualizing the impact of QA treatment on various PAH biomarkers in-vivo.
OCT compound embedded Tissue sections for control animals, MCT induced PAH animals and QA treated animals were further subjected to immunofluorescent staining to analyze expression levels of essential molecular markers. Briefly, tissue sections were washed twice with 1×PBS followed by blocking for one hour using a blocking buffer (Cell Signaling Technology, Danvers, MA, USA). Followed by blocking, tissue sections were stained with respective primary antibodies overnight; VWF #ab15419, 1:100 (abcam), α-SMA #489385, 1:500 (CST), Ki67 #9129S (CST), 1:250 and PCNA #2586S (CST), 1:100. Following day, tissue sections were washed with 1×PBS twice followed by incubation with Anti-rabbit IgG (H+L), F(ab′)2 Fragment (Alexa Fluor® 488 Conjugate) #4412S 1:250 (CST) and Anti-mouse IgG (H+L), F(ab′)2 Fragment (Alexa Fluor® 594 Conjugate) #8890S, 1:500 (CST) for one hour. Further, sections were washed with 1×PBS twice and the nuclei were stained with DAPI using Vectashield hardset antifade mounting medium with DAPI (Vector Laboratories, Burlingame, CA, USA). Tissues were imaged using Zeiss Axioplan 2 fluorescence microscope (Carl Zeiss AG, Jena, Germany).
Immunofluorescence imaging of the MCT-induced PAH animal lung tissue slides was also performed.

[5] = test system: Ki67, PCNA, vWF, α-SMA in SU5416/Hypoxia-induced PAH animal lung tissue; assay: SU5416/hypoxia model, immunofluorescence of lung tissue; type: in vivo, rat; settings: SU5416/hypoxia rats
Procedure: as §1, with “a SU5416/Hypoxia-induced preventative/prophylactic” for “monocrotaline (MCT) induced therapeutic”
Paraffin embedded tissue sections for control animals, hypoxia induced PAH animals and QA treated animals were further subjected to immunofluorescent staining to analyze expression levels of essential molecular markers. Deparaffinization of tissues was done by exposing tissue sections to a solution of xylene for 3 minutes twice followed by washing with 200 proof absolute 99.8% ethanol and 50% ethanol. Tissues were further washed with 1×PBS twice to ensure complete deparaffinization. Similar protocol was followed hereon for immunofluorescent staining of tissue sections.

[6] = test system: SU5416/hypoxia-induced PAH model; settings: SU5416/hypoxia rats, QA 10 mg/kg i.p. once-a-day for 3 weeks from Day 1

For `CCN(CC)CCCC(C)Nc1c2ccc(Cl)cc2nc2ccc(OC)cc12` (stereo not drawn) [QA, quinacrine], the proliferation [1] was “significantly inhibits proliferation”, the caspase-3 levels [2] was “increased caspase-3 levels” and the “increase in LC3B-II expression” value [3] was > 2 fold. For the same compound, the “expression of Ki67” value [4] was “reduction in expression”, the “expression of PCNA” value [4] was “reduction in expression” and the “expression of vWF” value ([4]; compared to control) was “did not show any reduction in expression”. The “expression of α-smooth muscle actin (α-SMA)” value ([4]; compared to control) was “did not show any reduction in expression”, the “expression of Ki67” value [5] was “reduction in expression” and the “expression of PCNA” value [5] was “reduction in expression”. The “expression of vWF” value [5] was “did not show any reduction in expression”, the “expression of α-SMA” value [5] was “did not show any reduction in expression” and the RVSP [6] was 45.6±7.9 mmHg.
